Columns and labels:
hepatofibrosis in rats = assay: CCl4-induced hepatofibrosis in chronic hepatitis in rats; type: in vivo, Sprague Dawley rats; settings: for HYP: hepatic; for HYP / HA / LN / PCIII: 6 weeks; for HA / LN / PCIII: serum
Protocol: 120 rats were randomly divided into 12 groups, with 10 in each group, namely, a normal control group, a model group, […] Apart from the normal control group, all rats were s.c. injected 0.3 ml of 40% solution of CC14 in oil per 100 g of body weight once every 3 days for 6 weeks. Animals in the normal control group were s.c. injected 0.3 ml/100 g body weight of oil vehicle following the same schedule as the experimental groups. First dose was doubled for all animals. Six weeks later, drugs were continuously administered to animals in each group for 6 weeks. After the administration was completed, all animals were anaesthetised with i.p. injection of 20% ethyl carbamate solution (Beijing Tongxian District Yucai Fine Chemicals). Blood was collected from abdominal aorta. Hepatic lobule tissue was removed, part of which was fixed with 10% neutral foinialin solution and made into wax blocks within 24-48 hours. […] Serum HA, LN, Pc III levels and hepatic HYP level were determined according to the respective kit instructions.

CRF rats = assay: CRF induced by 5/6 nephrectomy in rats; type: in vivo, Sprague Dawley rats

## O=C(/C=C/c1ccc(O)c(O)c1)O[C@H](Cc1ccc(O)c(O)c1)C(=O)O [RA, R(+)2-{[3-(3,4-dihydroxylphenyl-(oxo-2-propenyl)oxy]3,4-dihydroxylphenylpropionic acid]}]
Hepatofibrosis in rats; p.o. 150 mg/kg
  HYP: 1299 ± 153 µg/L
  HA: 84.9 ± 20.5 µg/L
  LN: 59.6 ± 16.8 µg/L
  PCIII: 27.5 ± 9.6 µg/L
Hepatofibrosis in rats; p.o. 300 mg/kg
  HYP: 1250 ± 174 µg/L
  HA: 80.7 ± 18.6 µg/L
  LN: 57.3 ± 18.6 µg/L
  PCIII: 26.9 ± 10.5 µg/L
Hepatofibrosis in rats; i.v. 2.5, 5, 25, 75, 150 mg/kg, p.o. 5, 25, 150, 300 mg/kg
  fibrosis (Rank-sum test): can significantly reduce fibrosis
Hepatofibrosis in rats; i.v. 2.5, 5, 25, 75, 150 mg/kg, p.o. 5, 25, 150, 300 mg/kg, p<0.05 or 0.01
  HA, LN, Pc III and HYP levels vs model group: can all significantly reduce HA, LN, Pc III, and HYP levels
Hepatofibrosis in rats; i.v. 2.5 mg/kg
  HA: 111.2 ± 24.1 µg/L
  LN: 72.6 ± 19.0 µg/L
  PCIII: 36.2 ± 7.8 µg/L
Hepatofibrosis in rats; i.v. 5 mg/kg
  HA: 106.3 ± 23.4 µg/L
  LN: 68.3 ± 17.9 µg/L
  PCIII: 34.2 ± 7.6 µg/L
Hepatofibrosis in rats; i.v. 25 mg/kg
  HA: 97.5 ± 23.6 µg/L
  LN: 62.0 ± 20.0 µg/L
  PCIII: 31.4 ± 7.8 µg/L
Hepatofibrosis in rats; i.v. 75 mg/kg
  HA: 77.9 ± 20.7 µg/L
  LN: 57.6 ± 16.8 µg/L
  PCIII: 26.5 ± 9.1 µg/L
Hepatofibrosis in rats; i.v. 150 mg/kg
  HA: 74.6 ± 18.9 µg/L
  LN: 55.3 ± 14.6 µg/L
  PCIII: 25.7 ± 7.8 µg/L
Hepatofibrosis in rats; p.o. 2.5 mg/kg
  HA: 113.8 ± 24.8 µg/L
  LN: 79.1 ± 19.4 µg/L
  PCIII: 38.0 ± 7.5 µg/L
Hepatofibrosis in rats; p.o. 5 mg/kg
  HA: 104.3 ± 26.4 µg/L
  LN: 69.3 ± 16.9 µg/L
  PCIII: 33.7 ± 7.3 µg/L
Hepatofibrosis in rats; p.o. 25 mg/kg
  HA: 97.0 ± 24.6 µg/L
  LN: 61.0 ± 20.6 µg/L
  PCIII: 31.6 ± 7.2 µg/L
CRF rats; 4 weeks, i.v. 2.5 mg/kg
  Serum creatinine: 1.32 ± 0.18 mg/dL
  Serum urea nitrogen: 21.12 ± 2.40 mg/dL
CRF rats; 4 weeks, i.v. 5 mg/kg
  Serum creatinine: 1.29 ± 0.31 mg/dL
  Serum urea nitrogen: 16.90 ± 4.09 mg/dL
CRF rats; 4 weeks, i.v. 25 mg/kg
  Serum creatinine: 1.12 ± 0.24 mg/dL
  Serum urea nitrogen: 14.63 ± 3.25 mg/dL
CRF rats; 4 weeks, i.v. 75 mg/kg
  Serum creatinine: 1.02 ± 0.19 mg/dL
  Serum urea nitrogen: 13.39 ± 2.45 mg/dL
CRF rats; 4 weeks, i.v. 150 mg/kg
  Serum creatinine: 1.01 ± 0.33 mg/dL
  Serum urea nitrogen: 12.85 ± 3.88 mg/dL
CRF rats; 4 weeks, p.o. 5 mg/kg
  Serum creatinine: 1.55 ± 0.16 mg/dL
CRF rats; 4 weeks, p.o. 10 mg/kg
  Serum creatinine: 1.42 ± 0.24 mg/dL
  Serum urea nitrogen: 18.60 ± 3.11 mg/dL
CRF rats; 4 weeks, p.o. 50 mg/kg
  Serum creatinine: 1.53 ± 0.15 mg/dL
CRF rats; 4 weeks, p.o. 150 mg/kg
  Serum creatinine: 1.30 ± 0.22 mg/dL
  Serum urea nitrogen: 17.01 ± 3.95 mg/dL
CRF rats; 4 weeks, p.o. 300 mg/kg
  Serum creatinine: 1.29 ± 0.28 mg/dL
  Serum urea nitrogen: 16.76 ± 4.30 mg/dL
CRF rats; 8 weeks, i.v. 2.5 mg/kg
  Serum creatinine: 1.89 ± 0.22 mg/dL
  Serum urea nitrogen: 22.15 ± 3.09 mg/dL
CRF rats; 8 weeks, i.v. 5 mg/kg
  Serum creatinine: 1.75 ± 0.37 mg/dL
  Serum urea nitrogen: 21.73 ± 5.26 mg/dL
CRF rats; 8 weeks, i.v. 25 mg/kg
  Serum creatinine: 1.51 ± 0.32 mg/dL
  Serum urea nitrogen: 19.25 ± 3.19 mg/dL
CRF rats; 8 weeks, i.v. 75 mg/kg
  Serum creatinine: 1.39 ± 0.26 mg/dL
  Serum urea nitrogen: 15.07 ± 3.45 mg/dL
CRF rats; 8 weeks, i.v. 150 mg/kg
  Serum creatinine: 1.37 ± 0.44 mg/dL
  Serum urea nitrogen: 14.85 ± 3.88 mg/dL
CRF rats; 8 weeks, p.o. 5 mg/kg
  Serum creatinine: 2.09 ± 0.22 mg/dL
CRF rats; 8 weeks, p.o. 10 mg/kg
  Serum creatinine: 2.06 ± 0.21 mg/dL
  Serum urea nitrogen: 25.65 ± 2.57 mg/dL
CRF rats; 8 weeks, p.o. 50 mg/kg
  Serum urea nitrogen: 23.91 ± 4.00 mg/dL
CRF rats; 8 weeks, p.o. 150 mg/kg
  Serum creatinine: 1.76 ± 0.30 mg/dL
  Serum urea nitrogen: 21.96 ± 3.95 mg/dL
CRF rats; 8 weeks, p.o. 300 mg/kg
  Serum urea nitrogen: 20.76 ± 5.50 mg/dL
CRF rats; i.v. 2.5, 5, 25, 75, 150 mg/kg, p.o. 5, 10, 50, 150, 300 mg/kg
  serum creatinine and urea nitrogen levels vs model group: can all significantly reduce serum creatinine and urea nitrogen levels
CRF rats; week 4
  renal pathological changes (HE, PAS): alleviated in RA treated animals in a dose-dependent manner

Reference: patent publication US20100130604A1, “USE OF ROSMARINIC ACID IN MANUFACTURE OF MEDICAMENTS FOR TREATING OR PREVENTING HEPATIC AND RENAL DISEASES” (SHANGDONG LUYE NATURAL DRUG RESEARCH AND DEVELOPMENT CO., …, priority 2006, published 2010)
